Data published in PubChem BioAssay (NCI).
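Compound exposure: 48 hours, 5 concentrations, 96-well plates. GI50 is the concentration that inhibits growth by half. TGI is the concentration that stops growth completely.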

Key:
Test in all cases: DTP human tumour cell line panel, 48 h
HCT-15 colon = tested on: HCT-15 colon
M14 melanoma = tested on: M14 melanoma
MOLT-4 leukemia = tested on: MOLT-4 leukemia
RPMI-8226 leukemia = tested on: RPMI-8226 leukemia
SK-MEL-2 melanoma = tested on: SK-MEL-2 melanoma
SN12C renal = tested on: SN12C renal
UO-31 renal = tested on: UO-31 renal
DU-145 prostate = tested on: DU-145 prostate
MDA-MB-435 = tested on: MDA-MB-435
BT-549 breast = tested on: BT-549 breast

`O=c1cc(-c2c[nH]c3ccccc23)[nH]c2cc3c(cc12)OCO3` was tested, and the TGI (HCT-15 colon) was > 100 µM, the TGI (M14 melanoma) was > 100 µM and the TGI (MOLT-4 leukemia) was > 100 µM. For the same compound, the TGI (RPMI-8226 leukemia) was > 100 µM, the TGI (SK-MEL-2 melanoma) was > 100 µM and the TGI (SN12C renal) was > 100 µM. The TGI (UO-31 renal) was > 100 µM.
In the case of `O=C1NC(=O)C(=Nc2cccc3c(=O)[nH][nH]c(=O)c23)C(c2nc3ccccc3s2)C1=O` (configuration not stated), the TGI (HCT-15 colon) is reported as > 100 µM, the TGI (M14 melanoma) is reported as > 100 µM and the TGI (MOLT-4 leukemia) is reported as > 100 µM. The TGI (SK-MEL-2 melanoma) was > 100 µM, the TGI (SN12C renal) was > 100 µM and the TGI (UO-31 renal) was > 100 µM.
With `Cc1ccc(NC(=O)C2C(=O)N(c3ccc(C)c(C)c3)C(=O)/C2=N\NC(N)=O)cc1C` (configuration not stated) the TGI (HCT-15 colon) was > 100 µM, the TGI (M14 melanoma) was > 100 µM and the TGI (MOLT-4 leukemia) was > 100 µM. For the same compound, the TGI (RPMI-8226 leukemia) was > 100 µM, the TGI (SK-MEL-2 melanoma) was > 100 µM and the TGI (SN12C renal) was > 100 µM. The TGI (UO-31 renal) was > 100 µM.
`CN=C(NC(=S)N(C)C)N(C)C` was tested, and the TGI (HCT-15 colon) was > 100 µM, the TGI (M14 melanoma) was > 100 µM and the TGI (MOLT-4 leukemia) was > 100 µM. The TGI (RPMI-8226 leukemia) was > 100 µM, the TGI (SK-MEL-2 melanoma) was > 100 µM and the TGI (SN12C renal) was > 100 µM. The TGI (UO-31 renal) was > 100 µM.
For `C#CC[N+](C)(CC#C)CC#C`, the TGI (HCT-15 colon) was > 100 µM, the TGI (M14 melanoma) was > 100 µM and the TGI (MOLT-4 leukemia) was > 100 µM. The TGI (RPMI-8226 leukemia) was > 100 µM, the TGI (SK-MEL-2 melanoma) was > 100 µM and the TGI (SN12C renal) was > 100 µM. For the same compound, the TGI (UO-31 renal) was > 100 µM.
With `Cc1ccc(-c2c3c(nn2-c2ccc(S(N)(=O)=O)cc2)-c2ccccc2C3)cc1` the GI50 (DU-145 prostate) was 15.6 µM, the TGI (DU-145 prostate) was 33.1 µM and the GI50 (HCT-15 colon) was 20.2 µM. For the same compound, the TGI (HCT-15 colon) was 42.4 µM, the GI50 (M14 melanoma) was 19.2 µM and the TGI (M14 melanoma) was 37.6 µM. For the same compound, the GI50 (MDA-MB-435) was 18.2 µM, the TGI (MDA-MB-435) was 34.7 µM and the GI50 (MOLT-4 leukemia) was 10.8 µM. It also gave a TGI (MOLT-4 leukemia) of 42.7 µM, a GI50 (RPMI-8226 leukemia) of 18.4 µM and a TGI (RPMI-8226 leukemia) of 60.2 µM. For the same compound, the GI50 (SK-MEL-2 melanoma) was 12.2 µM, the TGI (SK-MEL-2 melanoma) was 26.6 µM and the GI50 (SN12C renal) was 16.9 µM. It also gave a TGI (SN12C renal) of 36.9 µM, a GI50 (UO-31 renal) of 6.52 µM and a TGI (UO-31 renal) of 21.8 µM.
`COc1cc(-c2cc(-c3ccc(Nc4ccnc5cc(Cl)ccc45)cc3)nc(N3CCOCC3)n2)cc(OC)c1OC` was tested, and the GI50 (BT-549 breast) was 2570 nM, the TGI (BT-549 breast) was 7.19 µM and the GI50 (HCT-15 colon) was 1.52 µM. The TGI (HCT-15 colon) was 3.58 µM, the GI50 (MDA-MB-435) was 1.75 µM and the TGI (MDA-MB-435) was 3.48 µM. The GI50 (MOLT-4 leukemia) was 2.58 µM, the TGI (MOLT-4 leukemia) was 9.2 µM and the GI50 (RPMI-8226 leukemia) was 1.57 µM. For the same compound, the TGI (RPMI-8226 leukemia) was 5.02 µM, the GI50 (SK-MEL-2 melanoma) was 11.8 µM and the TGI (SK-MEL-2 melanoma) was 48 µM. It also gave a GI50 (SN12C renal) of 1.93 µM, a TGI (SN12C renal) of 3.81 µM and a GI50 (UO-31 renal) of 1.57 µM. The TGI (UO-31 renal) was 3.11 µM.
`O=C(CSc1ncn[nH]1)C[P+](c1ccccc1)(c1ccccc1)c1ccccc1` was tested, and the TGI (HCT-15 colon) was > 100 µM, the TGI (M14 melanoma) was > 100 µM and the TGI (MOLT-4 leukemia) was > 100 µM. The TGI (SK-MEL-2 melanoma) was > 100 µM, the TGI (SN12C renal) was > 100 µM and the TGI (UO-31 renal) was > 100 µM.
For `CCOc1ccc2c(c1)[n+]([O-])c(-c1ccc(Br)cc1)c(N)[n+]2[O-]`, the TGI (HCT-15 colon) was > 100 µM, the TGI (M14 melanoma) was > 100 µM and the TGI (MOLT-4 leukemia) was > 100 µM. For the same compound, the TGI (RPMI-8226 leukemia) was > 100 µM, the TGI (SK-MEL-2 melanoma) was > 100 µM and the TGI (SN12C renal) was > 100 µM. The TGI (UO-31 renal) was > 100 µM.
`O=C(O)C1CCCCC1c1c2ccc(=O)c(O)c-2oc2c(O)c(O)ccc12` (configuration not stated) was tested, and the TGI (DU-145 prostate) was > 100 µM, the TGI (M14 melanoma) was > 100 µM and the TGI (MDA-MB-435) was 44.5 µM. The TGI (MOLT-4 leukemia) was 84.4 µM, the TGI (RPMI-8226 leukemia) was 69.7 µM and the TGI (SK-MEL-2 melanoma) was > 100 µM. The TGI (SN12C renal) was 39.3 µM and the TGI (UO-31 renal) was > 100 µM.
In the case of `CCN(CC)c1ccc(N=Nc2ccc([N+](=O)[O-])cc2OC(=O)/C=C/c2ccccc2)c(OC(=O)/C=C/c2ccccc2)c1`, the TGI (HCT-15 colon) is reported as > 100 µM, the TGI (M14 melanoma) is reported as > 100 µM and the TGI (MOLT-4 leukemia) is reported as > 100 µM. The TGI (RPMI-8226 leukemia) was > 100 µM, the TGI (SK-MEL-2 melanoma) was > 100 µM and the TGI (SN12C renal) was > 100 µM. For the same compound, the TGI (UO-31 renal) was > 100 µM.
With `C[N+](C)(C)CC1CCC/C1=N/O` (configuration not stated) the TGI (HCT-15 colon) was 38.8 µM, the TGI (M14 melanoma) was > 100 µM and the TGI (MOLT-4 leukemia) was > 100 µM. For the same compound, the TGI (RPMI-8226 leukemia) was 47 µM, the TGI (SK-MEL-2 melanoma) was > 100 µM and the TGI (SN12C renal) was > 100 µM. For the same compound, the TGI (UO-31 renal) was > 100 µM.
`Cc1cccc(C(C)C)c1N1C(=O)C(=O)C(c2nc3ccccc3o2)C(=O)C1=O` was tested, and the TGI (HCT-15 colon) was > 100 µM, the TGI (M14 melanoma) was > 100 µM and the TGI (MOLT-4 leukemia) was 63.8 µM. The TGI (SK-MEL-2 melanoma) was > 100 µM, the TGI (SN12C renal) was > 100 µM and the TGI (UO-31 renal) was > 100 µM.
With `O=S(=O)(O)c1ccc(N=Nc2nc(C(F)(F)F)c(C(F)(F)F)[nH]2)cc1` the TGI (HCT-15 colon) was > 100 µM, the TGI (M14 melanoma) was 46.6 µM and the TGI (MOLT-4 leukemia) was > 100 µM. The TGI (RPMI-8226 leukemia) was > 100 µM, the TGI (SK-MEL-2 melanoma) was > 100 µM and the TGI (SN12C renal) was > 100 µM. The TGI (UO-31 renal) was > 100 µM.
For `CN(COC(=O)c1ccccc1)c1nc(N(C)COC(=O)c2ccccc2)nc(N(C)COC(=O)c2ccccc2)n1`, the TGI (DU-145 prostate) was > 100 µM, the TGI (HCT-15 colon) was > 100 µM and the TGI (M14 melanoma) was > 100 µM. The TGI (MDA-MB-435) was > 100 µM, the TGI (MOLT-4 leukemia) was > 100 µM and the TGI (RPMI-8226 leukemia) was > 100 µM. The TGI (SN12C renal) was > 100 µM and the TGI (UO-31 renal) was > 100 µM.
With `COC(=O)C(=CNC(N)=O)C(=O)OC` the TGI (DU-145 prostate) was > 100 µM, the TGI (HCT-15 colon) was > 100 µM and the TGI (M14 melanoma) was > 100 µM. The TGI (MDA-MB-435) was > 100 µM, the TGI (MOLT-4 leukemia) was > 100 µM and the TGI (RPMI-8226 leukemia) was > 100 µM. The TGI (SK-MEL-2 melanoma) was > 100 µM, the TGI (SN12C renal) was > 100 µM and the TGI (UO-31 renal) was > 100 µM.
In the case of `O=[N+]([O-])c1ccc(C2CC(c3ccccc3Cl)=Nc3ccccc3S2=O)cc1` (configuration not stated), the TGI (BT-549 breast) is reported as 31.1 µM, the TGI (DU-145 prostate) is reported as 34.1 µM and the TGI (HCT-15 colon) is reported as 5.3 µM. It also gave a TGI (M14 melanoma) of 20.7 µM, a TGI (MOLT-4 leukemia) of 7.47 µM and a TGI (RPMI-8226 leukemia) of 4.19 µM. It also gave a TGI (SK-MEL-2 melanoma) of 51.7 µM, a TGI (SN12C renal) of 5.2 µM and a TGI (UO-31 renal) of 4.74 µM.
